Assay results taken from US9115122B2, “Non-ATP dependent inhibitors of extracellular signal-regulated kinase (ERK)” (UNIVERSITY OF MARYLAND, BALTIMORE, priority 2012, dated 2015).

What was measured:
A375 melanoma cells = assay: Cell proliferation, fluorescent Cell Titer Blue Assay (Example 1); assay type: cell-based; settings: Homo sapiens, A-375; 48 hours
Method: (§1) FIG. 5. Dose dependent inhibition of cancer cell proliferation in vitro by SF-3-026 and analogs. A375 (closes circles), RPM17951 (closed squares), HeLa (open circles), or Jurkat (open squares) cells were treated for 48 hours with indicated concentration of (a) SF-3-026, (b) SF-2-027, (c) SF-2-029, or (d) SF-2-030 and cell proliferation was assessed by the fluorescent Cell Titer Blue Assay. The data were reproduced in 3 separate experiments.
(§2) Cells were seeded at 25,000 cells/well in 96-well plate and cultured overnight. Cells were treated for 24 hours with various concentrations of compounds and cell viability or caspase 3/7 activity were measured according to manufacturer's instructions using the fluorescent Cell Titer Blue Assay (Promega) or luminescent Caspase 3/7 Glo Assay (Promega).
(§3) It was next determined whether inhibition of AP-1 proteins by SF-3-026 and analogs affected the proliferation of cancer cells driven by mutations that constitutively activate the ERK1/2 pathway. For these experiments, A375 and RPMI7951 melanoma cells, which have a valine to glutamate mutation on residue 600 in BRaf that causes constitutive ERK1/2 activation, were chosen. Moreover, RPMI7951 cells are resistant to clinically used BRaf inhibitors due to overexpression of MAP3K8 (the gene encoding COT/Tp12) that re-activates ERK1/2 signaling. Both melanoma cells lines were treated with varying doses of SF-3-026 or analogs and cell viability was compared to HeLa cervical carcinoma and Jurkat T-cell leukemia cells, which are p53 defective but contain no known activating mutations in the ERK1/2 pathway.

RPMI7951 melanoma cells = assay: as above; assay type: cell-based; settings: Homo sapiens, RPMI-7951; 48 hours
Method: as §1, §2, §3

[1] = test system: Jurkat T-cell leukemia cells; assay: as above; assay type: cell-based; settings: Homo sapiens, 48 hours
Method: as §1, §2, §3

[2] = test system: HeLa cervical carcinoma cells; assay: as above; assay type: cell-based; settings: Homo sapiens, 48 hours
Method: as §1, §2, §3

ERK2 vs p38α MAP kinase = assay: Selectivity for ERK2 compared to p38α MAP kinase; assay type: binding
ERK2 R275A = ERK2 R275A (Rattus norvegicus (Rat), UniProt P63086, R275A); assay: Fluorescence quenching (FQ) binding affinity; settings: read-out: KD R275A (Site 3)
ERK2 L198A/L232A = ERK2 L198A/L232A (Rattus norvegicus (Rat), UniProt P63086, L198A/L232A); assay: Fluorescence quenching (FQ) binding affinity; settings: read-out: KD L198A/L232A (Site 5)
[3] = test system: c-Fos, Fra1, and FosB expression; assay: Immunoblot of EGF-induced c-Fos, Fra1 and FosB expression in HeLa cells; assay type: cell-based; settings: EGF 25 ng/mL
Method: FIG. 3. EGF-mediated induction of AP-1 proteins is inhibited by SF-3-026 and SF-3-030. (a) HeLa cells were treated for 10, 30, or 60 min. with EGF (25 ng/mL) in the presence of 50 μM SF-3-026 or 10 μM U0126. Protein lysates were immunoblotted for c-Fos, Fra1, FosB and FosB2. Phosphorylated ERK1/2 is not affected by SF-3-026 and α-tubulin expression is shown for a protein loading control. (b) Protein lysates from HeLa cells treated for 30 min. with EGF in the absence or presence of 10, 25, 50, or 100 μM of SF-3-026 or SF-3-030 were immunoblotted for c-Fos, Fra1, FosB, FosB2, as well as phosphorylated ERK1/2 and MEK1/2. Total ERK2 and α-tubulin expression are shown for protein loading controls. Data are representative of three independent experiments.
Analysis of protein expression levels, activity, and cell proliferation were done as previously described. […] Proteins were separated by SDS-PAGE, analyzed by immunoblotting, and detected using enhanced chemiluminescence (ECL, GE Healthcare, United Kingdom).
The reported half-life for c-Fos is ˜10 minutes and growth factor-mediated stabilization of c-Fos protein expression can be observed within 30-60 minutes, whereas stabilization of Fra1 protein is delayed due to AP-1 regulation of the Fra1 promoter. Thus, growth factor-mediated induction of c-Fos, Fra1, and FosB expression was evaluated following treatment with SF-3-026. […]

ERK2 L232A = ERK2 L232A (Rattus norvegicus (Rat), UniProt P63086, L232A); assay: Fluorescence quenching (FQ) binding affinity; settings: read-out: KD L232A (Site 5)
ERK2 L265A = ERK2 L265A (Rattus norvegicus (Rat), UniProt P63086, L265A); assay: Fluorescence quenching (FQ) binding affinity; settings: read-out: KD L265A (Site 4)
ERK2 L198A/L235A = ERK2 L198A/L235A (Rattus norvegicus (Rat), UniProt P63086, L198A/L235A); assay: Fluorescence quenching (FQ) binding affinity; settings: read-out: KD L198A/L235A (Site 5)
ERK2 Y191A = ERK2 Y191A (Rattus norvegicus (Rat), UniProt P63086, Y191A); assay: Fluorescence quenching (FQ) binding affinity; settings: read-out: KD Y191A (Site 2)
[4] = test system: ERK1/2-mediated phosphorylation of Elk-1; assay: Immunoblot of ERK1/2-mediated Elk-1 phosphorylation in EGF treated HeLa cells; assay type: cell-based; settings: 100 μM, EGF 25 ng/mL 10 min
Method: (b) HeLa cells were pre-incubated for 30 min with indicated compounds (100 μM) followed by treatment with EGF (25 ng/mL) for 10 min. to activate ERK1/2 signaling. Lysates were immunoblotted for phosphorylated Elk1 (pElk1 S383) or active ERK1/2 (pERK1/2). […] The MEK1/2 inhibitor U0126 (10 μM) was used to block all ERK1/2 signaling and α-tubulin expression was used as a protein loading control.

Sequence of ERK2 L198A/L235A (P63086 whole entry L198A/L235A): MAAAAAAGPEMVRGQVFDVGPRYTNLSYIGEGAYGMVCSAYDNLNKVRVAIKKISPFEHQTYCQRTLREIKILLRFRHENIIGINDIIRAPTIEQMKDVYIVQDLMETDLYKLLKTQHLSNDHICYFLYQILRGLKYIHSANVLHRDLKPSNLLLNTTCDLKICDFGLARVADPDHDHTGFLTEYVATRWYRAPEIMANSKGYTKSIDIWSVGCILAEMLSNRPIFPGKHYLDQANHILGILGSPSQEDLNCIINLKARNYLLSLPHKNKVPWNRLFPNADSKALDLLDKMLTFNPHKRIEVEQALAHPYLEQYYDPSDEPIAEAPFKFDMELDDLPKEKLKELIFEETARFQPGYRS
Sequence of ERK2 R275A (P63086 whole entry R275A): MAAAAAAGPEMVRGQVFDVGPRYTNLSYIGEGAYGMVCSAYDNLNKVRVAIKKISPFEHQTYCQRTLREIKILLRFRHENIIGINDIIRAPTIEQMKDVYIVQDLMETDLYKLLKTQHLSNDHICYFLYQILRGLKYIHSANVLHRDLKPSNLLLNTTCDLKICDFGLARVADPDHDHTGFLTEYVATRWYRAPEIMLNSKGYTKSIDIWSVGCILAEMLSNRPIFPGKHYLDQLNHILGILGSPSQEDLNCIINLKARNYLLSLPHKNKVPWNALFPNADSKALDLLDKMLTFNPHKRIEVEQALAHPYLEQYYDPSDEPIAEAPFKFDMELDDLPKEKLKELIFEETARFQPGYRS
Sequence of ERK2 L232A (P63086 whole entry L232A): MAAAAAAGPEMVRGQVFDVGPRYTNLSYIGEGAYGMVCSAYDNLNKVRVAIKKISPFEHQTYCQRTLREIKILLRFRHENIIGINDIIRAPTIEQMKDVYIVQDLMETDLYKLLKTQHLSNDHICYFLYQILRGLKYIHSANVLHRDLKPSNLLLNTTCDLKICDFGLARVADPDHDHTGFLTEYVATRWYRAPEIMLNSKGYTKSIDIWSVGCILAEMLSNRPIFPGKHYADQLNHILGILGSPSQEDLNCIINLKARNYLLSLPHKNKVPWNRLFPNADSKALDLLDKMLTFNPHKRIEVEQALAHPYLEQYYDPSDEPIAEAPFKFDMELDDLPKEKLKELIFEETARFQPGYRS
Sequence of ERK2 Y191A (P63086 whole entry Y191A): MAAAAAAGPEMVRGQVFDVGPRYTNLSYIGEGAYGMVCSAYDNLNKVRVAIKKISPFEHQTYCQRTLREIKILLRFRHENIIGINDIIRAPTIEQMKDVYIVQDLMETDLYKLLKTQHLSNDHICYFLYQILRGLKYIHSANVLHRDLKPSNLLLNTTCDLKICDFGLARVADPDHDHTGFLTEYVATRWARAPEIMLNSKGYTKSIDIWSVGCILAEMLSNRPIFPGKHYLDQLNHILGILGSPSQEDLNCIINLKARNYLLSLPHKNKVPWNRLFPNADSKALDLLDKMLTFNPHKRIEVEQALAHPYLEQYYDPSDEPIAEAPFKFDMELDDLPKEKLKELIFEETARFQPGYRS
Sequence of ERK2 L265A (P63086 whole entry L265A): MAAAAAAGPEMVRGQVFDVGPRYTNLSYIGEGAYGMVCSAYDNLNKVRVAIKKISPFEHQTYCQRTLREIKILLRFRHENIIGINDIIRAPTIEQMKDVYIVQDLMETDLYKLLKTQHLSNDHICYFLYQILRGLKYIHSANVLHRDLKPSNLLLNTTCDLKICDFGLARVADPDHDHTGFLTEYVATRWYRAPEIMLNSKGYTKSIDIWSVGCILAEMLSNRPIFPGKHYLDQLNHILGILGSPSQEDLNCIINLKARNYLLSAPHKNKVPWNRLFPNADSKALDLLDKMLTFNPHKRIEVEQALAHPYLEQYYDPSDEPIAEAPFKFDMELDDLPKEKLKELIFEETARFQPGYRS
Sequence of ERK2 L198A/L232A (P63086 whole entry L198A/L232A): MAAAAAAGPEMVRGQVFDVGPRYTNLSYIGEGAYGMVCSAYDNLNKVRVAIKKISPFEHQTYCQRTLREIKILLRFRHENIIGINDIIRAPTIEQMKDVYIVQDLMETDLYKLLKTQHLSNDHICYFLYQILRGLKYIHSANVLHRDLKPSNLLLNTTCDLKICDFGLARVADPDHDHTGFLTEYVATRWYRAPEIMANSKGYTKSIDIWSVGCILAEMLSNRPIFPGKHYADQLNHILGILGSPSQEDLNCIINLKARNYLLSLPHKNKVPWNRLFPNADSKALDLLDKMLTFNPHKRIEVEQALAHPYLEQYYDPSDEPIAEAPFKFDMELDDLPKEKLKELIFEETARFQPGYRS

## O=S1(=O)C=CC(OS(=O)(=O)c2ccccc2)C1 (stereo not shown) [SF-3-026]
A375 melanoma cells
  GI50: 7800 nM
RPMI7951 melanoma cells
  GI50: 5100 nM
[1]
  GI50: > 50000 nM
[2]
  GI50: 32000 nM
ERK2 vs p38α MAP kinase
  selectivity for ERK2 as compared to p38α MAP kinase: ~150 fold
ERK2 R275A
  Kd: 240 nM
ERK2 L198A/L232A
  Kd: 140 ± 20 nM
[3]
  inhibition of EGF-induced c-Fos, Fra1, and FosB expression: dramatic inhibition
ERK2 L232A
  Kd: 130 nM
ERK2 L265A
  Kd: 280 nM
ERK2 L198A/L235A
  Kd: > 20000 nM
ERK2 Y191A
  Kd: 130 nM
[4]
  inhibition of ERK1/2-mediated Elk-1 phosphorylation: inhibit ERK1/2-mediated phosphorylation
